The values below are quoted from earlier work in patent US8222237B2, “Progestational 3-(6,6-ethylene-17B-hydroxy-3-oxo-17A-pregna-4-ene-17A-yl)propionic acid G-lactones” (Evestra, Inc., priority 2008, dated 2012).

For data set [1] the following is noted: acidic conditions such as encountered in the gastric environment.
For data set [2] the following is noted: at various pH values.
The conditions of data set [3]: from a single entity tablet.

Consider `C[C@]12CCC(=O)C=C1[C@@H]1C[C@@H]1[C@H]1[C@@H]3[C@@H]4C[C@@H]4[C@@]4(CCC(=O)O4)[C@@]3(C)CC[C@@H]12` [drospirenone, 6β,7β,15β,16β-dimethylene-3-oxo-17α-pregn-4-ene-21,17-carbolactone], for which, in data set [1], the “isomerization under acidic conditions” value was “undergo isomerization to a form that is inactive”. Also, in data set [2], the solubility in water result was “only sparingly soluble”. In addition, the absolute bioavailability result in data set [3] is “about 76%”.
